Assay results: patent US8722868B2, “Glycosyltransferase, novel glycosyltransferase gene, and novel sugar donor compound” (National University Corporation Tokyo University of …, priority 2009, dated 2014)

Columns and labels:
[1] = target: T1, crude enzyme obtained from pink petals of a carnation (variety: "Beam Cherry") (glycosyltransferase) (Dianthus caryophyllus, UniProt E3W9M2); experiment: Relative activity of crude carnation petal enzyme on each sugar donor (glycosyl transfer to cyanidin 3-glucoside, HPLC); assay type: biochemical; conditions: crude enzyme 61 μg, cyanidin β-glucoside 200 μM, sugar donor 500 μM, citric acid buffer pH 5.6, 30° C., 15 minutes, HPLC area of cyanidin 3,5-O-β diglucoside
T1 construct: Thus, a crude enzyme liquid was obtained; from tissue; host or cells: pink petals of carnation, variety Beam Cherry (ammonium sulfate precipitate, desalted)
T1 sequence (E3W9M2 31-502): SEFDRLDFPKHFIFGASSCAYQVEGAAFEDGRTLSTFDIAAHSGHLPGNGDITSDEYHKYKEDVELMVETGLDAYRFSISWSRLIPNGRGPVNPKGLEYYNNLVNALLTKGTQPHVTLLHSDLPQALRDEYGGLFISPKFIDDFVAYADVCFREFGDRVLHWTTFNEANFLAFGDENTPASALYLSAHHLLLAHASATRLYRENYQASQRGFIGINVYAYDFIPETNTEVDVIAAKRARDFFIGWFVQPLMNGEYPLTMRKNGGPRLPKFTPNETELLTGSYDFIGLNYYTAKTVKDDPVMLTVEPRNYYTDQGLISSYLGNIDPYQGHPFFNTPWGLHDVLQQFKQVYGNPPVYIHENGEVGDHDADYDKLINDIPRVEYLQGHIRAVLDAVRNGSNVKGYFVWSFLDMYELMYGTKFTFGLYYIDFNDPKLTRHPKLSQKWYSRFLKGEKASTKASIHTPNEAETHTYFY
Method: An enzyme reaction was carried out at 30° C. for 15 minutes in a reaction solution obtained by adding a citric acid buffer (pH 5.6) to a crude enzyme obtained from pink petals of a carnation (variety: “Beam Cherry”) (61 μg), cyanidin β-glucoside (200 μM), and a sugar donor (1-O-β-vanillyl glucose extracted from a carnation or any of synthesized 1-O-vanillyl glucose (in the α or β form), 1-O-isovanillyl glucose (in the α or β form), and 1-O-galloyl glucose (in the α or β form)) (500 μM) to a final volume of 30 μl. The reaction was terminated by adding a 20% phosphoric acid aqueous solution to the reaction liquid so as to result in a final phosphoric acid concentration of 1%, followed by centrifugation. The obtained supernatant was subjected to separation using an HPLC (Chromolith Speed ROD; 4.6×50 mm; Merck) with a linear gradient (5 minutes) of 18% to 28% liquid B containing eluent A (a 1.5% phosphoric acid aqueous solution) and eluent B (a 90% methanol aqueous solution) (flow rate: 3.0 ml/min; 520 nm), followed by analysis. The relative activity of the enzyme on each sugar donor was calculated based on the HPLC chromatogram area of a reaction product (cyanidin 3,5-O-β diglucoside) at a wavelength of 505 nm.

[2] = target: T2, enzyme purified from pink petals of a carnation (variety: "Beam Cherry") (glycosyltransferase) (Dianthus caryophyllus, UniProt E3W9M2); experiment: Relative activity of glycosyltransferase purified from carnation on each sugar donor (HPLC); assay type: biochemical; conditions: purified enzyme 135 ng, cyanidin 3-glucoside 200 μM, sugar donor 500 μM, citric acid buffer pH 5.6, 30° C., 15 minutes; HPLC area of cyanidin 3,5-O-β-diglucoside
T2 construct: the enzyme comprising 502 amino acid residues was translated, followed by amino acid removal via processing; from tissue; host or cells: petals of carnation, variety Beam Cherry
T2 sequence (E3W9M2 31-502): T1 sequence (E3W9M2 31-502)
Method: An enzyme reaction was carried out at 30° C. for 15 minutes using an enzyme (135 ng) purified from pink petals of a carnation (variety: “Beam Cherry”) by the method described in Example 2 ((1) and (2)), cyanidin 3-glucoside (200 μM), and a sugar donor (1-O-β-D-vanillyl glucose or any of 1-O-β-D-p-coumaryl glucose, 1-O-β-D-caffeyl glucose, 1-O-β-D-feruloyl glucose, and 1-O-β-D-sinapoyl glucose that had been enzymatically synthesized according to the method described in Matsuba Y et al., Plant Biotechnology vol. 25, No. 4 (2008) pp. 369-375) (500 μM) in a reaction solution adjusted to 30 μl with the addition of a citric acid buffer (pH 5.6). A 20% phosphoric acid aqueous solution was added to the reaction liquid so as to result in a final phosphoric acid concentration of 1%. Thus, the reaction was terminated, followed by centrifugation. The resulting supernatant was subjected to separation using a HPLC column (Chromolith SpeedROD, 4.6×50 mm, Merck), eluent A (a 1.5% phosphoric acid aqueous solution), and eluent B (a 90% methanol aqueous solution) with a linear gradient of 18% to 28% liquid B (flow rate: 3.0 ml/min, 520 nm) (5 minutes), followed by analysis. The relative activity of the enzyme on each sugar donor was determined by calculating the area of the reaction product (cyanidin 3,5-O-β-diglucoside) on an HPLC chromatogram at a wavelength of 505 nm.

COc1cc(C(=O)OC2OC(CO)C(O)C(O)C2O)ccc1O (stereo not drawn)
Relative activity of an enzyme on a sugar donor (when synthetic 1-O-β-vanillyl glucose is set as 100) [1]: 100
Relative activity of an enzyme on a sugar donor (when synthetic 1-O-β-vanillyl glucose is set as 100) ([1]; listed as 1-O-β-vanillyl glucose (from carnation)): 97.9
Relative activity of an enzyme on a sugar donor (when synthetic 1-O-β-vanillyl glucose is set as 100) [2]: 100
